The source of these data is ChEMBL document CHEMBL5360583, “Benzo[j]fluoranthene-Derived Natural Products” (J Nat Prod, 2023).

Values after ≈ are worked out from the molar mass of the structure shown.

The subject of one data set is RAW264.7. The data set can be described thus: Anti-inflammatory activity in mouse RAW264.7 cells assessed as inhibition of NO production. It is filed as functional, cell-based.
In another data set the test system is Enterococcus faecalis. The data set is described as follows: Antibacterial activity against Enterococcus faecalis assessed as zone of inhibition. It is filed as functional.
Another data set relates to SW480. The data set is described as follows: Cytotoxicity against human SW480 cells assessed as reduction in cell growth by MTT assay. It is filed as functional, cell-based.
The subject of the next data set is Staphylococcus aureus. The data set can be described thus: Antibacterial activity against Staphylococcus aureus assessed as zone of inhibition. It is filed as functional.
The nature of data set [1]: Inhibition of tyrosine kinase (unknown origin). Further details: species or system Homo sapiens.
Data set [2] in a line: Inhibition of IL-2 production in CD28-stimulated human Jurkat E6.1 cells. It is filed as functional, cell-based.
Data set [3] in a line: Cytotoxicity against BALB/c mouse Splenocyte assessed as reduction in cell viability incubated for 48 hrs by MTT assay. It is filed as toxicity, cell-based. Conditions: splenocytes. On the technique in general: Tetrazolium dyes change colour on reduction, which living cells bring about.
The next data set concerns Splenocyte. The data set can be described thus: Immunosuppressive activity in BALB/c mouse splenocyte assessed as reduction in ConA-induced mouse T-lymphocytes proliferation incubated for 48 hrs by MTT assay. In kind it is functional, cell-based.
The next data set deals with Bacillus subtilis. The data set is described as follows: Antibacterial activity against Bacillus subtilis assessed as zone of inhibition by disc diffusion method. In kind it is functional. On the technique in general: Agar diffusion results depend on both activity and mobility in agar.
The test system of a further data set is Jurkat. The data set is described as follows: Antiproliferative activity against human Jurkat cells assessed as reduction in cell viability measured after 24 hrs by MTT assay. In kind it is functional, cell-based.
A further data set relates to Ramos. The data set is described as follows: Antiproliferative activity against human Ramos cells assessed as reduction in cell viability measured after 24 hrs by MTT assay. It is filed as functional, cell-based.
Data set [4] deals with Micrococcus luteus. The data set can be described thus: Antibacterial activity against Micrococcus luteus assessed as reduction in bacterial growth. It is filed as functional.
The next data set concerns Yarrowia lipolytica. The data set is described as follows: Antifungal activity against Yarrowia lipolytica assessed as zone of inhibition. It is filed as functional.
Data set [5] has as its system L929. The data set can be described thus: Cytotoxicity against mouse L929 cells assessed as reduction in cell viability by MTT assay. In kind it is functional, cell-based.
Another data set concerns Caenorhabditis elegans. The data set is described as follows: Nematicidal activity against Caenorhabditis elegans. It is filed as functional. Conditions: read-out: LD50 (the source's name).
A short description of data set [6]: Antioxidant activity assessed as DPPH radical scavenging activity at 50 uM. In kind it is functional. For orientation: The DPPH test is a chemical assay of radical scavenging.
Another data set deals with Mucor hiemalis. The data set is described as follows: Antifungal activity against Mucor hiemalis assessed as inhibition of fungal growth measured after 18 to 48 hrs by microbroth dilution assay. Conditions: time 18-48 hrs. It is filed as functional.
Data set [7] has as its target Hyaluronan-binding protein 2 (Homo sapiens, UniProt Q14520). The data set can be described thus: Inhibition of spermidine-induced human pro-PHBP autoactivation.
In data set [8] the test system is Micrococcus luteus. The data set is described as follows: Antibacterial activity against Micrococcus luteus assessed as bacterial growth inhibition. In kind it is functional.
The subject of data set [9] is L929. The data set can be described thus: Cytotoxicity against mouse L929 cells assessed as reduction in cell viability. In kind it is functional, cell-based.

Chain of Hyaluronan-binding protein 2 (Q14520 24-313 limits assumed): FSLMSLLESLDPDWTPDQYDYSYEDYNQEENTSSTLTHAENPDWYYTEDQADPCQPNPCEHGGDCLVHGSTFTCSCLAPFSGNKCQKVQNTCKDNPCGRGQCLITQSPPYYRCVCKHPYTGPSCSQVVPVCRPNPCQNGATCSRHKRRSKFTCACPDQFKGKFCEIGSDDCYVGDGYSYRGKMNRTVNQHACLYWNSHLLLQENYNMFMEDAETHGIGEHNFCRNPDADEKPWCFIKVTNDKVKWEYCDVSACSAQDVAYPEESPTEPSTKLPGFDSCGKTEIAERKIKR
Chain of Hyaluronan-binding protein 2 (Q14520 314-560 limits assumed): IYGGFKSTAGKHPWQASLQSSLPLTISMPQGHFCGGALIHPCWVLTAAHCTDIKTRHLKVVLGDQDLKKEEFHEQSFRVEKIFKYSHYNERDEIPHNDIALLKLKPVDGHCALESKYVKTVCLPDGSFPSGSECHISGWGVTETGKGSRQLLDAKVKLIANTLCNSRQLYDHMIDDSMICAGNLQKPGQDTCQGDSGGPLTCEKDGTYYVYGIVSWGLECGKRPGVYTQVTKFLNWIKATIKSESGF

As to `CO[C@H]1C[C@H](O)C2=C3c4cccc(O)c4C(=O)[C@@H](O)[C@@H]3C3=CC=C(O)C1C32` (some centres undefined), in the data set on RAW264.7, the IC50 turned out to be 14.4 µM.
For `CO[C@H]1C[C@H](O)C2=C3c4cccc(O)c4C(=O)C[C@@H]3c3ccc(O)c1c32` [HYPOXYLONOL B], the IC50 in the data set on RAW264.7 came to 21.1 µM.
Take `O=C1C[C@@H]2[C@H]3CC[C@H](O)c4c(O)ccc(c43)[C@]2(O)c2cccc(O)c21`: the “inhibition zone (IZ)” value in the data set on Enterococcus faecalis and in the data set on Staphylococcus aureus was 10 mm in each case. In addition, the IC50 with SW480 is 9.59 µM.
`COC1C(O)c2c(O)cccc2C2=C3CCC(=O)c4c(O)ccc(c43)C21` (centres undefined): the IC50 in [1] and in data set [2] was above 5000 nM throughout.
`Oc1cccc2c3c(ccc12)-c1ccc(O)c2cccc-3c12`: the IC50 at 48 h in [3] turned out to be 0.22 µg/mL (≈ 0.774 µM). Besides, the half-maximal inhibitory concentration (IC50) in the data set on Splenocyte turned out to be 0.025 µg/mL (≈ 0.0879 µM).
As to `COC1C(=O)c2c(O)cccc2C2=C3CCC(=O)c4c(O)ccc(c43)C21` (centres undefined), the IC50 in data set [1] turned out to be 45 nM; in [2], 2400 nM.
For the compound `O=C1C[C@@H]2[C@H]3CCC(=O)c4c(O)ccc(c43)[C@]2(O)c2cccc(O)c21`, the “inhibition zone (IZ)” value in the data set on Bacillus subtilis amounted to 11 mm; in the data set with Staphylococcus aureus, 12 mm.
Regarding `O=C1C[C@]2(O)C(=C3C=CC(=O)c4c(O)ccc2c43)c2cccc(O)c21`, the IC50 in the data set with Jurkat is 14.1 µM; in the data set on Ramos, 6.6 µM.
In the case of `O=C1C[C@H]2C(=C3CCC(=O)c4c(O)ccc2c43)c2cccc(O)c21`, the MIC in the data set with Micrococcus luteus [4] was 16.7 µg/mL (≈ 52.5 µM). The “inhibition zone (IZ)” value in the data set on Yarrowia lipolytica is listed as 9 mm; with Bacillus subtilis it was 11 mm. Also, in the data set with L929 [5], the IC50 is 10.4 µM. Also, the LC50 in the data set with Caenorhabditis elegans was 100 µg/mL (≈ 314 µM).
For the compound `O=C1C[C@H]2C(=C3c4c2ccc(O)c4[C@@H](O)C[C@H]3O)c2cccc(O)c21`, the Activity in data set [6] came out at 1.74%.
In the case of `CO[C@@H]1[C@H](OC)c2c(O)cccc2C2=C3CCC(=O)c4c(O)ccc(c43)[C@H]21`, the 50% inhibitory concentration (IC50) turned out to be 760 nM in data set [1] and 2500 nM in data set [2].
Regarding `O=C1C[C@@H]2[C@@H]3CCC(=O)c4c(O)ccc(c43)[C@]2(O)c2cccc(O)c21`, the entries for the “inhibition zone (IZ)” value in the data set with Yarrowia lipolytica and with Bacillus subtilis were 7 mm and 10 mm, respectively. In the data set with Caenorhabditis elegans, the LC50 is 25 µg/mL (≈ 74.3 µM).
The matching figures for `O=C1c2c3c(cc(O)c2[C@H](O)[C@@H]2O[C@H]12)C1C=CC(O)=C2C(O)=CC=C3C21` (some centres undefined): 8 mm, 11 mm and 50 µg/mL (≈ 143 µM).
For the compound `COc1cccc2c3c(ccc12)-c1ccc(O)c2c(OC)ccc-3c12`, the MIC in the data set with Mucor hiemalis is 4.3 µg/mL (≈ 13.1 µM).
For `O=C1C(O)=c2c(c3ccc(=O)c4c(O)ccc2c4-3)-c2cccc(O)c21`, in [7], the concentration for half-maximal inhibition (IC50) worked out at 14 µM.
Turning to `O=C1C[C@@H]2[C@H]3CC[C@@H](O)c4c(O)ccc(c43)[C@]2(O)c2cccc(O)c21`, the “inhibition zone (IZ)” value in the data set on Enterococcus faecalis and in the data set on Bacillus subtilis was 10 mm throughout.
`COc1cccc2c3c(ccc12)-c1ccc(O)c2c(O)ccc-3c12`: the minimal inhibitory concentration (MIC) with Micrococcus luteus [8] is 8.3 µg/mL (≈ 26.4 µM).
Regarding `O=C1C[C@H](O)[C@H]2c3c(ccc(O)c31)-c1cc(O)c3c(O)cccc3c12`, the concentration for half-maximal inhibition (IC50) in the data set on L929 [5] was found to be 1.1 µM.
`O=C1C(O)=c2c(c3cc(O)c(=O)c4c(O)ccc2c4-3)-c2cccc(O)c21`: the half-maximal inhibitory concentration (IC50) in the data set on L929 [9] came to 7 µM.
For `Oc1cccc2c3c(ccc12)-c1ccc(O)c2c(O)ccc-3c12`, the minimum inhibitory concentration (MIC) with Micrococcus luteus [8] worked out at 16.7 µg/mL (≈ 55.6 µM).
Regarding `CO[C@@H]1[C@H](O)c2c(O)cccc2C2=C3CCC(=O)c4c(O)ccc(c43)[C@H]21`, the half-maximal inhibitory concentration (IC50) in data set [1] stood at 60 nM; in data set [2], 400 nM.

A word on the IC50: it is the concentration needed to halve the response being measured. Usually MIC stands for the least concentration at which growth counts as inhibited.
